Data set [1] relates to HCT-116. The data set can be described thus: Antiproliferative activity against human HCT116 cells after 72 hrs by CellTiter-Glo assay. The data set is classed as functional, cell-based. The following applies: HCT-116, 72 h. On the technique in general: Cellular ATP, detected with luciferase, serves as a proxy for viable cell number.
Data set [2] relates to HCT-116. The data set can be described thus: Induction of cell cycle arrest in human HCT116 cells assessed as accumulation at G2/M phase at 0.005 to 0.5 uM after 24 hrs. It counts as functional, cell-based.
Data set [3] is described as follows: Solubility of the compound at pH 7. It counts as physicochemical. As to conditions: buffer.
The test system of data set [4] is Mus musculus. Description: Toxicity in CD1 mouse xenografted with human HCT116 cells assessed as reversible body weight loss at 30 mg/kg, iv BID administered on day 1, 2 post-implantation in weekly schedule of 3 cycles measured on day 32. As to conditions: in vivo. For orientation: Xenograft models place foreign cells or tissue in a host animal.
Data set [5] relates to PANC-1. The data set can be described thus: Antiproliferative activity against human PANC1 cells after 72 hrs by CellTiter-Glo assay. It counts as functional, cell-based. As to conditions: PANC-1, 72 h.
Data set [6] is described as follows: Terminal half life in CD1 mouse at 10 mg/kg, iv administered as single dose by LC/MS/MS analysis. The data set is classed as ADME, organism-based. The arrangement: dose 10 mg/kg, route intravenous. The following applies: in vivo, read-out: beta t1/2 (converted).
Data set [7] has as its system U2OS. The data set can be described thus: Induction of cell cycle arrest in human U2OS cells assessed as accumulation of pSer10 histone H3-positive cells at 260 nM after 24 hrs by array scan assay.
Data set [8] concerns U2OS. Description: Induction of cell cycle arrest in human U2OS cells assessed as accumulation of cyclin B1-positive cells at 320 nM after 24 hrs by array scan assay.
For data set [9], the system named is HCT-116. The data set can be described thus: Induction of apoptosis in human HCT116 cells assessed as induction of PARP cleavage at 0.005 to 0.5 uM after 24 hrs. The data set is classed as functional, cell-based.
Data set [10] has as its system LoVo. Description: Antiproliferative activity against human LoVo cells after 72 hrs by CellTiter-Glo assay. The data set is classed as functional, cell-based.
The nature of data set [11]: Oral bioavailability in CD1 mouse at 10 mg/kg administered as single dose by LC/MS/MS analysis. The data set is classed as ADME, organism-based. The following applies: in vivo.
Data set [12] concerns HCT-116. Description: Antitumor against human HCT116 cells xenografted in CD1 mouse assessed as tumor growth inhibition at 30 mg/kg, iv BID administered on day 1, 2 post-implantation in weekly schedule of 3 cycles measured on day 32. The data set is classed as functional. The following applies: read-out: TGI.
The subject of data set [13] is Mus musculus. The data set can be described thus: Toxicity in CD1 mouse xenografted with human A2780 cells assessed as reversible body weight loss at 30 mg/kg, iv BID administered on day 1, 2, 3 post-implantation measured on day 12. It counts as organism-based. The arrangement: dose 30 mg/kg, route intravenous. The following applies: in vivo.
A short description of data set [14]: Antiproliferative activity against human KMS11 cells after 72 hrs by CellTiter-Glo assay. The following applies: KMS-11, 72 h. The data set is classed as functional, cell-based.

SMILES strings stand for the structures. pIC50: −log10 of the molar value. Converted amounts (≈) assume the structure as drawn. The source made the active and inactive calls. The rule behind the calls is not given here.

As usually defined, the pIC50 is the IC50 on a negative log10 scale, so that one unit is a factor of ten. The solubility is the concentration that dissolves in the medium under given conditions. By bioavailability is commonly meant dose-corrected exposure relative to a reference, in per cent. Low values mean little systemic uptake, high ones much systemic uptake.

Consider `CN1CCN(c2ccc(OC(F)(F)F)c(Nc3ncc4c(n3)-c3c(c(C(N)=O)nn3C)CC4)c2)CC1`, for which the pIC50 was 7.39 in [1], 6.90 in data set [5], 8.15 in data set [10] and 7.85 in data set [14]. Besides, the outcome in data set [2] and in data set [9] was Active. For the same compound, the concentration in solution in [3] (solubility) came to 72 µM (≈ 36.2 µg/mL). Moreover, the Activity is on record as 14% in data set [4], 20% in data set [7], 20% in data set [8] and 19% in [13]. Moreover, in data set [6], the half-life was 55.2 min. Further, the bioavailability in data set [11] was 21%. The inhibition in vivo at 30 mg/kg in [12] was 81%.

For the origin of these results see ChEMBL document CHEMBL1268971, “4,5-Dihydro-1H-pyrazolo[4,3-h]quinazolines as potent and selective Polo-like kinase 1 (PLK1) inhibitors” (Bioorg Med Chem Lett, 2010).
